# Source: patent US20160272713A1, “Fibrosis Inhibiting Compounds and Methods of Use Thereof in the Prevention or Treatment of Fibrosing Diseases” (priority 2013, published 2016)
# Substitutions are numbered along the chain they refer to. In names and notes the source's numbering stands.
# B1: CRP A32N: CRP glycosylated by mutating its 32nd amino acid from alanine to asparagine (protein, UniProt P02741 19-224, looked up, variant A32N)
# C-reactive protein: QTDMSRKAFVFPKESDTSYVSLKAPLTKPLKNFTVCLHFYTELSSTRGYSIFSYATKRQDNEILIFWSKDIGYSFTVGGSEILFEVPEVTVAPVHICTSWESASGIVEFWVDGKPRVRKSLKKGYTVGAEASIILGQEQDSFGGNFEGSQSLVGDIGNVNMWDFVLSPDEINTIYLGGPFSPNVLNWRALKYEVQGEVFTKPQLWP
# B2: CRP: C-reactive protein, 51% sequence identity with SAP (protein, UniProt P02741 19-224, looked up)
# C-reactive protein: B1 C-reactive protein with N32A
# What was measured:
# [1] = system: fibrocyte formation from human PBMCs; assay: fibrocyte formation (differentiation) assay with PBMCs in serum-free medium; format: cell-based; settings: for IC50: PBMC, read-out: IC50 of inhibition of fibrocyte formation; for effect on fibrocyte formation / differentiation (in words): counts normalized to control; for concentration at which fibrocyte formation was significantly inhibited: p<0.05 (t-test)
# Source text: (§1) Human blood was collected into heparin tubes (BD Bioscience, San Jose, Calif.) from adult volunteers who gave written consent and with specific approval from the Texas A&M University human subjects Institutional Review Board. PBMCs were then isolated as previously described in Pilling, D. et al., Improved serum-free culture conditions for differentiation of human and murine fibrocytes, Journal of Immunology Methods 351:62-70 (2009), incorporated in material part by reference herein. Alamar Blue (Life Technologies, Grand Island, N.Y.) was used to assess cell viability following the manufacturer's protocol. Fibrocyte differentiation assays in the presence of different compounds were performed in serum-free medium as described in Pilling, D. et al., Improved serum-free culture conditions for differentiation of human and murine fibrocytes, Journal of Immunology Methods 351:62-70 (2009) which is incorporated in material part by reference herein. Macrophage polarization assays to detect formation of proinflammatory macrophages with an M1 phenotype were carried out in serum-free medium, in which case monocytes were left to differentiate to macrophages for 5 days and then the medium was replaced with fresh medium containing 3 microgram/ml of the tested protein.
# C57/BL6 mice = assay: bleomycin-induced pulmonary fibrosis in mice; format: in vivo
# Procedure: To determine the effects of compound 1 in treatment of a fibrosing disease, pulmonary fibrosis was selected as a model. Pulmonary fibrosis was induced in C57/BL6 mice by oropharyngeal aspiration of bleomycin into their lungs. 24 hour after bleomycin administration, mice received daily intraperitoneal injections of compound 1. At day 21 mice were euthanized and the bronchoalveolar lavage fluid (BAL) and the lungs were harvested.
# The successful aspiration of bleomycin into the lungs was confirmed by listening for the crackling noise heard after the aspiration. Starting 24 hours following bleomycin aspiration (day 1), mice were treated daily with intraperitoneal injections of 50 microliters of PBS containing 2 microliters of 1 mg/ml of compound 1 (ChemBridge Corporation, San Diego, Calif.) (0.1 mg/kg) dissolved in DMSO (SigmaAldrich), 2 microliters of 0.1 mg/ml of compound 1 (0.01 mg/kg) dissolved in DMSO, 2 microliters of 0.01 mg/ml of compound 1 (0.001 mg/kg) dissolved in DMSO, or an equal volume of PBS containing 2 microliters of DMSO. All animals were used in accordance with rules published by the National Institutes of Health and with a protocol approved by the Texas A&M University Institutional Animal Care and Use Committee. Mice were weighed daily, and euthanized using CO2 following NIH guidelines at day 21 after bleomycin aspiration. No injections were done on day 21. […] The BAL cells from the first BAL collection were collected by centrifugation at 500×g for 10 minutes, and the supernatants were transferred to Eppendorf tubes. The supernatants were flash frozen with liquid nitrogen, and stored at −20° C. until further use. The BAL pellets were resuspended in the secondary and tertiary BAL fluid and the combined cells were collected by centrifugation at 500×g for 5 minutes. The cells were resuspended in 500 microliters of 4% (w/v) BSA-PBS and counted with a hemocytometer. 100 microliters of diluted cells were then aliquoted into cytospin funnels and were then spun onto glass slides (Superfrost plus white slides, VWR) at 400×g for 5 minutes using a cytospin centrifuge (Shandon, Cheshire, England). These cells were then air-dried, and stained for CD11b (Biolegend) or CD11c (MBL International, Woburn, Mass.) as described below.
# After collection of BAL fluid, mouse lungs were inflated with prewarmed OCT (VWR, Radnor, Pa.) and then embedded in OCT, frozen on dry ice, and then stored at −80° C. 6-micron cryosections of mouse lung were mounted on Superfrost Plus microscope slides (VWR). Sections were fixed in acetone for 20 min at room temperature. […] After washing, the biotinylated antibodies were detected by streptavidin-alkaline phosphatase (Vector Laboratories) following the manufacturer's protocol. […]
# macrophages = assay: macrophage polarization assay (M1 marker ICAM-1, M2 marker CD163); format: cell-based, human; settings: 3 microgram/ml protein
# Source text: as §1
# Macrophage staining with anti-CD163 and anti-ICAM-1 antibodies was carried out as described in Pilling, D. et al., Identification of markers that distinguish monocyte-derived fibrocytes from monocytes, macrophages, and fibroblasts, PloS one 10:e7475 (2009) which is incorporated in material part by reference herein. Both primary antibodies were used at a concentration of 5 microgram/ml.
# [2] = 0.1, 0.01 and 0.001 mg/kg daily intraperitoneal, day 21
Molecule,IC50 [1],effect on fibrocyte formation / differentiation (in words) [1],expression of the M1 marker ICAM-1 (macrophages),expression of the M2 marker CD163 (macrophages),other results
CCC(=O)Nc1nc(C)c(-c2csc(Nc3ccc(N(C)C)cc3)n2)s1 [Compound 1],0.0031 nM,,,,"CD11b positive inflammatory macrophages in the BAL vs bleomycin control (C57/BL6 mice; [2]): significantly decreased; collagen in the lungs (picrosirius red) vs bleomycin alone (C57/BL6 mice; [2]): significantly less collagen in the lungs; number of CD11b positive inflammatory macrophages in the lung sections (C57/BL6 mice; 0.1 and 0.01 mg/kg daily intraperitoneal, day 21, after BAL): significantly decreased; CD11c positive macrophages in the BAL (C57/BL6 mice; daily intraperitoneal injections, day 21): not altered significantly"
CCCOC(=O)c1ccc(-c2ccc(C=C3C(=O)N(c4ccc(S(N)(=O)=O)cc4)N=C3C(F)(F)F)o2)cc1 [Compound 2],0.33 nM,,,,
COC(=O)c1ccc(-c2ccc(C=C3C(=O)N(c4ccc(S(N)(=O)=O)cc4)N=C3C(F)(F)F)o2)cc1 [Compound 3],2.2 nM,significantly inhibited fibrocyte formation at all tested concentrations,,,
SAP NA: enzymatically (neuraminidase) desialylated SAP lacking the terminal sialic acids,,reduced inhibitory effect on fibrocyte differentiation,increased the expression of the M1 marker ICAM-1,did not,
"SAP: Serum amyloid P, 125 kDa pentameric pentraxin protein",,,did not cause such an increase,increased the expression of the M2 marker CD 163,concentration at which fibrocyte formation was significantly inhibited [1]: ≥ 0.25 microgram/ml
B1,,"able to inhibit fibrocyte formation, although not as well as SAP",did not cause such an increase,increased the expression of the M2 marker CD 163,concentration at which fibrocyte formation was significantly inhibited [1]: ≥ 1 microgram/ml
B2,,,increased the expression of the M1 marker ICAM-1,did not,
